Data taken from US10799442B2, “Compounds useful in the treatment and/or care of the skin, hair, nails, and/or mucous membranes” (LUBRIZOL ADVANCED MATERIALS, INC., priority 2015, dated 2020).

Legend:
OCT4 = experiment: Modulation of stem cell markers in HEKa, Real Time PCR Arrays (OCT4 mRNA); assay type: cell-based, Human; conditions: 48 hours
Method: The candidate compound is evaluated for the modulation of several stem cell markers, those transcription factors regulated by miRNA145 (SOX2, OCT4, KLF4 and MYC). Gene expression profiles are analyzed by Real Time PCR Arrays using a 96-well panel for use with SYBR® Green (BioRad) to detect mRNA expression levels of stem cell markers plus three housekeeping genes, and five controls, in Human Epidermal Keratinocytes from adult (HEKa) (Cascade Biologics).
HEKa cells are seeded at 6.0×10^5 cells/well in 6-well plates and incubated in culture medium, Epilife with defined Growth Supplement (EDGS) (Cascade Biologics), for 24 hours at 37° C. in a water-saturated atmosphere of 95% air and 5% CO2. After 24 hours, the medium is removed and the cells are incubated with the synthetic peptide DD14024 at several concentrations in a culture medium. Cells are incubated with culture medium only and these provide the basal conditions. After 48 hours of treatment at 37° C. in a CO2 incubator, the cells are lysed directly in the wells, and RNA is purified following the protocol described on the RNeasy Mini kit (Qiagen) according to the manufacturer's protocol. After RNA elution, quantification and analysis of purity of RNA samples are performed with a biophotometer (Eppendorf). For each sample, 2 μg of high quality RNA is retrotranscribed with iScript Advanced (BioRad) in a final volume of 20 μl. The complete reaction mix is incubated in a thermal cycler (Eppendorf) at 42° C. for 30 minutes and the reaction is stopped at 85° C. for 5 minutes (?). Complementary DNA is amplified by qPCR in a real-time PCR thermocycler (BioRad) using SYBR Green Supermix (BioRad) in the 96-well panel for use with SYBR® Green (BioRad). SYBR Green binds to double-stranded DNA molecules and emits fluorescence which is quantified; the fluorescence intensity is proportional to the amount of the product in the PCR reaction. […] Fold change relative to the expression of the sample genes and reference genes is calculated using normalized expression (ΔΔ(Ct)) method using CFX Manager Software (BioRad). […]

Keratin 10 = experiment: Keratins expression profile in HEKa with 1 mM CaCl2, Real Time PCR Arrays (Keratin 10); assay type: cell-based, Human; conditions: Keratin 10 mRNA, 48 hours
Method: The candidate compound is assayed for its ability to recover the basal keratinocyte state. The keratinocytes of the four layers of the epidermis present different expression patterns of keratins. Basal keratinocytes strongly express Keratin 14 and when differentiated, Keratin 10 is increased. To elucidate the keratinocyte state (basal or differentiated), the expression profile of keratins is analyzed by Real Time PCR Arrays, using a 96-well panel for use with SYBR® Green (BioRad) to detect mRNA expression levels of two keratin genes (Keratins 10 and 14) plus three housekeeping genes, and five controls, in Human Epidermal Keratinocytes from adult (HEKa) (Cascade Biologics).
HEKa cells are seeded at 6.0×10^5 cells/well in 6-well plates and incubated in culture medium Epilife with defined Growth Supplement (EDGS) (Cascade Biologics), for 24 hours at 37° C. in a water-saturated atmosphere of 95% air and 5% CO2. After 24 hours, the medium is removed and the cells are incubated with the synthetic peptide candidate at several concentrations in culture medium that contains 1 mM CaCl2) (Sigma) to induce differentiation of keratinocytes. Cells are incubated with 1 mM CaCl2) in culture medium and this provides a positive control of differentiation. Cells are incubated with culture medium only and these provide basal conditions. After 48 hours of treatment at 37° C. in a CO2 incubator, the cells are lysed directly in the wells, and RNA is purified following the protocol described on the RNeasy Mini kit (Qiagen) according to the manufacture's protocol. After RNA elution, quantification and analysis of purity of RNA samples are performed with a biophotometer (Eppendorf). […] SYBR Green binds to double-stranded DNA molecules and emits fluorescence which is quantified; the fluorescence intensity is proportional to the amount of the product in the PCR reaction. […] Fold change relative to the expression of the sample genes and reference genes is calculated using normalized expression (ΔΔ(Ct)) method using CFX Manager Software (BioRad).

## Ac-QEMRMQ-OH [DD14024, Ac-Gln-Glu-Met-Arg-Met-Gln-OH]
OCT4; 0.001 mg/ml
  Fold induction respect to basal conditions: 1.65 ± 0.13
OCT4; 0.005 mg/ml
  Fold induction respect to basal conditions: 1.81 ± 0.28
OCT4; 0.01 mg/ml
  Fold induction respect to basal conditions: 1.71 ± 0.29
Keratin 10; 1 mM CaCl2, 0.001 mg/ml
  Fold induction respect to positive control of differentiation: 0.68 ± 0.04
Keratin 10; 1 mM CaCl2, 0.005 mg/ml
  Fold induction respect to positive control of differentiation: 0.60 ± 0.02
Keratin 10; 1 mM CaCl2, 0.01 mg/ml
  Fold induction respect to positive control of differentiation: 0.72 ± 0.06
